Laboratory results reported in patent US7786164B2, “Lipophilic di(anticancer drug) compounds, compositions, and related methods” (Sonus Pharmaceuticals, Inc., priority 2005, dated 2010).
Read-outs that look alike come from different tables or passages of the source.

What was measured:
Format in all cases: cell-based
[1] = test system: MDA-MB-231 (breast) cancer cell line; assay: In vitro cytotoxicity (GI50), Sulforhodamine B staining, MDA-MB-231; settings: Homo sapiens, read-out: Drug concentration that produces 50% cell growth inhibition (GI50), MDA-MB-231 (BREAST)
Experimental: (§1) In this example, the in vitro cytotoxicity, as measured by GI50 (50% of growth inhibition) values, was determined for representative lipophilic di(anticancer drug) compounds of the invention. The GI50 values of sebacate bis(7-ethylcamptothecin-10-yl)ester, sebacate bis(camptothecin-20-yl)ester, sebacate bis(paclitaxel-2′-yl)ester, and sebacate bis(docetaxel-2′-yl)ester, were measured in the following cancer cell lines: NCI-H460 (non-small cell lung), MDA-MB-231 (breast), […] (colon), and SKOV-3 (ovarian).
(§2) The study was performed using a solution of the lipophilic di(anticancer drug) compounds in DMSO (1 mM) diluted in the corresponding cell media. The cells were in contact with varying concentrations of the drug for a period of 48 hours. At the end of 48 hours, staining with Sulforhodamine B was performed to determine the number of viable cells and calculate the degree of cellular growth inhibition as compared to a control group.

[2] = test system: SKOV-3 (ovarian) cancer cell line; assay: In vitro cytotoxicity (GI50), Sulforhodamine B staining, SKOV-3; settings: Homo sapiens, read-out: Drug concentration that produces 50% cell growth inhibition (GI50), SKOV-3 (OVARIAN)
Experimental: as §1, §2

[3] = test system: HCT-116 (colon) cancer cell line; assay: In vitro cytotoxicity (GI50), Sulforhodamine B staining, HCT-116; settings: Homo sapiens, read-out: Drug concentration that produces 50% cell growth inhibition (GI50), HCT-116 (COLON)
Experimental: as §1, §2

[4] = test system: NCI-H460 (non-small cell lung) cancer cell line; assay: In vitro cytotoxicity (GI50), Sulforhodamine B staining, NCI-H460; settings: Homo sapiens, read-out: Drug concentration that produces 50% cell growth inhibition (GI50), H460 (NSCLC)
Experimental: as §1, §2

[5] = MDA-MB-231 (breast) cells, 48 hours contact, Sulforhodamine B
[6] = SK-OV-3, SKOV-3 (ovarian) cells, 48 hours contact, Sulforhodamine B
[7] = HCT-116 (colon) cells, 48 hours contact, Sulforhodamine B
[8] = NCI-H460, H460 (NSCLC) cells, 48 hours contact, Sulforhodamine B

Row | Compound | GI50 ([1]; MDA-MB-231, 48 h) [nM] | GI50 ([2]; SK-OV-3, 48 h) [nM] | GI50 ([3]; HCT-116, 48 h) [nM] | GI50 ([4]; NCI-H460, 48 h) [nM] | GI50 [1, 5] [nM] | GI50 [2, 6] [nM] | GI50 [3, 7] [nM] | GI50 [4, 8] [nM]
1 | CC(=O)O[C@H]1C(=O)[C@@]2(C)[C@H]([C@H](OC(=O)c3ccccc3)[C@]3(O)C[C@H](OC(=O)[C@H](OC(=O)CCCCCCCCC(=O)O[C@@H](C(=O)O[C@H]4C[C@@]5(O)[C@@H](OC(=O)c6ccccc6)[C@@H]6[C@]7(OC(C)=O)CO[C@@H]7C[C@H](O)[C@@]6(C)C(=O)[C@H](OC(C)=O)C(=C4C)C5(C)C)[C@@H](NC(=O)c4ccccc4)c4ccccc4)[C@@H](NC(=O)c4ccccc4)c4ccccc4)C(C)=C1C3(C)C)[C@]1(OC(C)=O)CO[C@@H]1C[C@@H]2O [sebacate bis(paclitaxel-2′-yl)ester, decanedioic acid bis[(1R,2S)-2-(benzoylamino)-1-[[[(2aR,4S,4aS,6R,9S,11S,12S,12aR,12bS)-6,12b-bis(acetyloxy)-12-(benzoyloxy)-2a,3,4,4a,5,6,9,10,11,12,12a, 12b-dodecahydro-4,11-dihydroxy-4a,8,13,13-tetramethyl-5-oxo-7,11-methano-1H-cyclodeca[3,4]benz[1,2-b]oxet-9-yl]oxy]carbonyl]-2-phenylethyl]ester] | 84.3 | 40.2 | 39.9 | 83.2 | – | – | – | –
2 | CCc1c2c(nc3ccc(OC(=O)CCCCCCCCC(=O)Oc4ccc5nc6c(c(CC)c5c4)Cn4c-6cc5c(c4=O)COC(=O)[C@]5(O)CC)cc13)-c1cc3c(c(=O)n1C2)COC(=O)[C@]3(O)CC [sebacate bis(7-ethylcamptothecin-10-yl), decanedioic acid bis[(4S)-4,11-diethyl-3,4,12,14-tetrahydro-4-hydroxy-3,14-dioxo-1H-pyrano[3′,4′:6,7]indolizino[1,2-b]quinolin-9-yl]ester] | 303 | 8.53 | 4.58 | 3.03 | – | – | – | –
3 | CC[C@@]1(OC(=O)CCCCCCCCC(=O)O[C@]2(CC)C(=O)OCc3c2cc2n(c3=O)Cc3cc4ccccc4nc3-2)C(=O)OCc2c1cc1n(c2=O)Cc2cc3ccccc3nc2-1 [sebacate bis(camptothecin-20-yl)ester, decanedioic acid bis[(4S)-4-ethyl-3,4,12,14-tetrahydro-3,14-dioxo-1H-pyrano[3′,4′:6,7]indolizino[1,2-b]quinolin-4-yl]ester] | – | – | – | – | 9250 | 8540 | 849 | 3150
4 | CC(=O)O[C@@]12CO[C@@H]1C[C@H](O)[C@@]1(C)C(=O)[C@H](O)C3=C(C)[C@@H](OC(=O)[C@H](OC(=O)CCCCCCCCC(=O)O[C@@H](C(=O)O[C@H]4C[C@@]5(O)[C@@H](OC(=O)c6ccccc6)[C@@H]6[C@]7(OC(C)=O)CO[C@@H]7C[C@H](O)[C@@]6(C)C(=O)[C@H](O)C(=C4C)C5(C)C)[C@@H](NC(=O)OC(C)(C)C)c4ccccc4)[C@@H](NC(=O)OC(C)(C)C)c4ccccc4)C[C@@](O)([C@@H](OC(=O)c4ccccc4)[C@H]21)C3(C)C [sebacate bis(docetaxel-2′-yl)ester, decanedioic acid bis[(1R,2S)-1-[[[(2aR,4S,4aS,6R,9S,11S,12S,12aR,12bS)-12b-(acetyloxy)-12-(benzoyloxy)-2a,3,4,4a,5,6,9,10,11,12,12a,12b-dodecahydro-4,6,11-trihydroxy-4a,8,13,13-tetramethyl-5-oxo-7,11-methano-1H-cyclodeca[3,4]benz[1,2-b]oxet-9-yl]oxy]carbonyl]-2-[[(1,1-dimethylethoxy)carbonyl]amino]-2-phenylethyl]ester] | – | – | – | – | 111 | 135 | 20.9 | 16.7
